Data as given in paper PMC10732257 (Oncotarget, 2023).

Tests used:
CDK12/cyclin K = target: T1, CDK12/cyclin K (Homo sapiens, UniProt Q9NYV4); assay: CDK family off-target kinase activity (Eurofins); assay type: biochemical
T1 construct: purchased Eurofins Pharma Discovery Services UK Ltd
Protocol: (§1) GFH009 inhibition activity against the CDK9/cyclin T1 complex as well as off-target CDK family reactivity were assayed by Eurofins Pharma Discovery Services UK Ltd., (Dundee, UK). Determination of off-target inhibition of other kinases was conducted by DiscoverX LeadHunter Discovery Services (Freemont, CA, USA.) GFH009 reactivity to GPCR family members was assayed by Wuxi AppTech (Shanghai, China).
(§2) The pharmacodynamic and mechanistic foundation for the
(§3) CDK9 inhibitor for the treatment of hematologic malignancies
(§4) Supplementary Table 1: Inhibitory action of GFH009 on other CDK family members
(§5) Various CDK/ Remaining enzymatic activity (%) after
(§6) cognate cyclin pairs tested exposure to GFH009 at a concentration of Selectivity vs. CDK9
(§7) (also on this page, place not known: www.oncotarget.com Oncotarget, Materials Supplementary)
(§8) (1 picture or pasted object on this page, not shown here)

CDK18/cyclin Y = target: T2, CDK18/cyclin Y (Homo sapiens, UniProt Q07002); assay: CDK family off-target kinase activity (Eurofins); assay type: biochemical
T2 construct: purchased Eurofins Pharma Discovery Services UK Ltd
Protocol: as §1, §2, §3, §4, §5, §6, §7, §8

5-HT1A (serotonin) = target: T3, 5-HT1A (serotonin) (Homo sapiens, UniProt P08908); assay: GPCR competitive antagonist (off-target inhibitory action) testing; assay type: cell-based
T3 construct: Wuxi AppTech (Shanghai, China)
Text: (§9) Supplementary Table 3: Results of off-target inhibitory action testing of GFH009 administered at
(§10) Competitive antagonist activity against GPCR type shown below

5-HT1B (serotonin) = target: T4, 5-HT1B (serotonin) (Homo sapiens, UniProt P28222); assay: as above; assay type: cell-based
T4 construct: Wuxi AppTech (Shanghai, China)
Text: as §9, §10

5-HT2A (serotonin) = target: T5, 5-HT2A (serotonin) (Homo sapiens, UniProt P28223); assay: as above; assay type: cell-based
T5 construct: Wuxi AppTech (Shanghai, China)
Text: as §9, §10

5-HT2B (serotonin) = target: T6, 5-HT2B (serotonin) (Homo sapiens, UniProt P41595); assay: as above; assay type: cell-based
T6 construct: Wuxi AppTech (Shanghai, China)
Text: as §9, §10

AD2 (adenosine) = assay: as above; assay type: cell-based
Text: as §9, §10

CB1 (cannabinoid) = target: T7, CB1 (cannabinoid) (Homo sapiens, UniProt P21554); assay: as above; assay type: cell-based
T7 construct: Wuxi AppTech (contract laboratory)
Text: as §9, §10

CB2 (cannabinoid) = target: T8, CB2 (cannabinoid) (Homo sapiens, UniProt P34972); assay: as above; assay type: cell-based
T8 construct: Wuxi AppTech (contract laboratory)
Text: as §9, §10

CCKa = target: T9, CCKa (Homo sapiens, UniProt P32238); assay: as above; assay type: cell-based
T9 construct: Wuxi AppTech (contract laboratory)
Text: as §9, §10

D1 (dopamine) = target: T10, D1 (dopamine) (Homo sapiens, UniProt P21728); assay: as above; assay type: cell-based
T10 construct: Wuxi AppTech (contract laboratory)
Text: as §9, §10

D2 (dopamine) = target: T11, D2 (dopamine) (Homo sapiens, UniProt P14416); assay: as above; assay type: cell-based
T11 construct: Wuxi AppTech (contract laboratory)
Text: as §9, §10

ETA (endothelin) = target: T12, ETA (endothelin) (Homo sapiens, UniProt P25101); assay: as above; assay type: cell-based
T12 construct: Wuxi AppTech (contract laboratory)
Text: as §9, §10

H1 (histamine) = target: T13, H1 (histamine) (Homo sapiens, UniProt P35367); assay: as above; assay type: cell-based
T13 construct: Wuxi AppTech (contract laboratory)
Text: as §9, §10

H2 (histamine) = H2 (histamine) (Homo sapiens, UniProt P25021); assay: as above; assay type: cell-based
Text: as §9, §10

V1A (vasopressin) = V1A (vasopressin) (Homo sapiens, UniProt P37288); assay: as above; assay type: cell-based
Text: as §9, §10

a1a (adrenoceptor) = target: T14, a1a (adrenoceptor) (Homo sapiens, UniProt P35348); assay: as above; assay type: cell-based
T14 construct: Wuxi AppTech (contract laboratory)
Text: as §9, §10

a2a (adrenoceptor) = target: T15, a2a (adrenoceptor) (Homo sapiens, UniProt P08913); assay: as above; assay type: cell-based
T15 construct: Wuxi AppTech (contract laboratory)
Text: as §9, §10

b1 (adrenoceptor) = target: T16, b1 (adrenoceptor) (Homo sapiens, UniProt P08588); assay: as above; assay type: cell-based
T16 construct: Wuxi AppTech (contract laboratory)
Text: as §9, §10

b2 (adrenoceptor) = target: T17, b2 (adrenoceptor) (Homo sapiens, UniProt P07550); assay: as above; assay type: cell-based
T17 construct: Wuxi AppTech (contract laboratory)
Text: as §9, §10

op-d (opioid) = op-d (opioid) (Homo sapiens, UniProt P41143); assay: as above; assay type: cell-based
Text: as §9, §10

op-k (opioid) = op-k (opioid) (Homo sapiens, UniProt P41145); assay: as above; assay type: cell-based
Text: as §9, §10

op-m (opioid) = op-m (opioid) (Homo sapiens, UniProt P35372); assay: as above; assay type: cell-based
Text: as §9, §10

MV-4-11 xenograft = assay: Anti-tumor efficacy in subcutaneous MV-4-11 xenograft model; assay type: in vivo, female BALB/c nude mice
Protocol: Figure 6 Anti-tumor efficacy of GFH009 in MV-4-11 xenograft model. MV-4-11 xenograft in female BALB/c nude mice were treated with GFH009 or enitociclib at the indicated doses (n = 8 mice per group). Results are expressed as mean ± SEM. ^* P < 0.05, ^**** P < 0.0001, two-way ANOVA with Dunnett’s multiple comparisons test analysis compared to Vehicle control group.
In vivo studies of tumor suppression were conducted in female BALB/c nude mice (Beijing Vital River Laboratory Animal Technology Co, Ltd., Changping, Beijing, China) bearing MV-4-11 xenografts (ATCC, Rockville, MD, USA). Each mouse was inoculated subcutaneously into the right dorsal-region with 5.0 × 10^6 cultured MV-4-11 cells in a total volume of 0.2 ml solution and allowed to develop xenograft tumors. Once tumor size had reached […], mice were divided into groups to receive 1 of 8 different treatment preparations dosed intravenously via the tail vein (Table 2). […] Enitociclib was administered as a 1.0 mg/mL solution in ultrapure water with 5% DMSO. Vehicle control was 50 mM PBS with no dissolved treatment drug.
Animals dosed BIW were given treatments on 2 consecutive days. Weights were recorded for each mouse every day and tumor volumes assessed 3 times a week. Total treatment administration occurred across 3 consecutive weeks.
Subcutaneous tumor volume (TV) was calculated as TV = (L × W^2)/2, where L was the length and W was the width of the tumor [11]. […] TGI was calculated as TGI (%) = (1 – avTi-0/ avCi-0)) × 100, where avTi-0 is the mean TV of the treatment group on a given day minus the mean TV of this treatment group on the day of group assignment, and avCi-0 is the mean TV of the vehicle control group on a given day minus the mean TV of the vehicle control group on the day of group assignment.
Tumor volume data was subjected to a base-10 logarithmic transformation and subsequent comparisons of TV across groups was made using two-way ANOVA (Dunnett’s multiple comparisons test). All plotting and statistical analyses were conducted using GraphPad Prism 6.00 (GraphPad Software).

COC[C@@H](C)NC1CCC(Nc2cc(-c3csc(NCC4(C#N)CCOCC4)n3)c(Cl)cn2)CC1 (some centres unmarked) [GFH009]
Selectivity vs. CDK9 (CDK12/cyclin K): > 1000 | Remaining enzymatic activity (%) after exposure to GFH009 (CDK12/cyclin K; 1 µM): 94% | Remaining enzymatic activity (%) after exposure to GFH009 (CDK12/cyclin K; 10 µM): 86% | Selectivity vs. CDK9 (CDK18/cyclin Y): > 100 | Remaining enzymatic activity (%) after exposure to GFH009 (CDK18/cyclin Y; 1 µM): 53% | Remaining enzymatic activity (%) after exposure to GFH009 (CDK18/cyclin Y; 10 µM): 12% | % Inhibitory Effect @ Max Dose (10 µM) (5-HT1A (serotonin)): 12.31% | % Inhibitory Effect @ Max Dose (10 µM) (5-HT1B (serotonin)): 4.71% | % Inhibitory Effect @ Max Dose (10 µM) (5-HT2A (serotonin)): −7.10% | % Inhibitory Effect @ Max Dose (10 µM) (5-HT2B (serotonin)): −24.98% | % Inhibitory Effect @ Max Dose (10 µM) (AD2 (adenosine)): −13.58% | % Inhibitory Effect @ Max Dose (10 µM) (CB1 (cannabinoid)): −9.21% | % Inhibitory Effect @ Max Dose (10 µM) (CB2 (cannabinoid)): −8.86% | % Inhibitory Effect @ Max Dose (10 µM) (CCKa): 16.26% | % Inhibitory Effect @ Max Dose (10 µM) (D1 (dopamine)): 1.10% | % Inhibitory Effect @ Max Dose (10 µM) (D2 (dopamine)): 10.34% | % Inhibitory Effect @ Max Dose (10 µM) (ETA (endothelin)): −0.32% | % Inhibitory Effect @ Max Dose (10 µM) (H1 (histamine)): 12.37% | % Inhibitory Effect @ Max Dose (10 µM) (H2 (histamine)): −18.49% | % Inhibitory Effect @ Max Dose (10 µM) (V1A (vasopressin)): −1.57% | % Inhibitory Effect @ Max Dose (10 µM) (a1a (adrenoceptor)): 68.39% | % Inhibitory Effect @ Max Dose (10 µM) (a2a (adrenoceptor)): 5.16% | % Inhibitory Effect @ Max Dose (10 µM) (b1 (adrenoceptor)): 30.48% | % Inhibitory Effect @ Max Dose (10 µM) (b2 (adrenoceptor)): −3.46% | % Inhibitory Effect @ Max Dose (10 µM) (op-d (opioid)): −15.46% | % Inhibitory Effect @ Max Dose (10 µM) (op-k (opioid)): 11.54% | % Inhibitory Effect @ Max Dose (10 µM) (op-m (opioid)): 20.94% | Tumor total volume at 10.0 mg/kg (MV-4-11 xenograft; 10.0 mg/kg i.v., through day 29): consistent reduction in total volume | Tumor growth (total volume) compared to the vehicle control (MV-4-11 xenograft; i.v., GFH009 maleate 2.5, 5.0, 10.0 mg/kg QW or BIW, enitociclib 10.0 mg/kg QW, 3 weeks): tumor growth inhibition
